The source made the active and inactive calls. No cut-off for these calls is given here.
Molecular target: not listed separately
Experiment: (§1) Inhibition of human PDE2 using FAM-labeled cAMP as substrate after 60 mins in presence of cGMP by florescence polarization assay

Row | SMILES | Ki
1 | CC(C)[C@@H](NC(=O)c1cc(=O)[nH]c(N(C)C)n1)c1ccc(SC(F)(F)F)cc1 | 0.37 to 5.1 nM
2 | CC[C@@H](NC(=O)c1cc(=O)[nH]c(N(C)C)n1)c1ccc(SC(F)(F)F)cc1 | 0.69 to 5.05 nM
3 | CN(C)c1nc(C(=O)N[C@@H](c2ccc(OC(F)(F)F)c(F)c2)C(C)(C)O)cc(=O)[nH]1 | 0.12 nM
4 | C[C@@H](NC(=O)c1cc(=O)[nH]c(N(C)C)n1)c1ccc(OC(F)(F)F)c(Cl)c1 | 1.6 nM
5 | CN(C)c1nc(C(=O)NC2(c3ccc(C(F)(F)F)c(F)c3)CC2)cc(=O)[nH]1 | 0.9 to 0.96 nM
6 | C[C@@H](NC(=O)c1cc(=O)[nH]c(N(C)C)n1)c1ccc(SC(F)(F)F)cc1 | 0.32 to 0.82 nM

Species on record: Homo sapiens
Experiment: as §1

Row | SMILES | inhibition
7 | COc1ccc(Cc2nc(O)c3c(C)nc([C@@H](CCCc4ccccc4)[C@@H](C)O)n3n2)cc1OC | Active

Source: ChEMBL document CHEMBL3868638, “Potential Treatment of Cognitive Impairment in Schizophrenia by Phosphodiesterase 2 (PDE2) Inhibitors” (ACS Med Chem Lett, 2017)
